Results reported in paper PMC6429200, “Synthesis and Broad Antiviral Activity of Novel 2-aryl-isoindolin-1-ones towards Diverse Enterovirus A71 Clinical Isolates” (Molecules, 2019).

Legend:
[1] = Cytotoxicity assay (CPE) on Vero cells; assay type: cell-based; details: African green monkey; Vero cells, 3 days of incubation, Reed–Muench; read-out: CC50
Procedure: (§1) An in-vitro antiviral assay was established using the Africa monkey kidney cell line Vero which was infected with different EV-A71 clinical isolates (BrCr, H, Shenzhen98 and Jiangsu52). A total of 24 synthetic compounds were initially screened in such an assay to determine their inhibitory effect on virus replication at 3-fold diluted concentrations serial (400~0.18 μM). The 50% effective concentration (EC50) of each compound was calculated according to its inhibitory rate values with the Reed–Muench method. The 50% cytotoxic concentration (CC50) was defined as the concentration that inhibited 50% cellular growth in comparison with the controls. The selectivity index (SI) was calculated as CC50/EC50. […] Generally, the EV-A71 H strain was less sensitive to most of the active compounds as compared to the other virus strains.
African green monkey kidney (Vero) cells were purchased from the American Type Culture Collection (ATCC) and were cultured in minimum essential medium (MEM) supplemented with 10% fetal bovine serum (FBS) (GIBCO) and antibiotics (100 U/mL penicillin and […] streptomycin) at 37 °C in a 5% CO2 incubator.
The cytotoxic effects of compounds on Vero cells were detected by the cytopathic effect (CPE) assay. Briefly, cells (3 × 10^4 cells/well) were seeded into 96-well culture plates and incubated overnight. Then, the medium was removed and different concentrations of compounds were applied in triplicate. After 3 days of incubation, the CC50 was defined as the concentration that inhibited 50% cellular growth in comparison with the untreated controls, as calculated by the Reed–Muench method.

[2] = test system: EV-A71 strain BrCr; assay: CPE inhibition assay for anti-EV-A71 in Vero cells, BrCr strain; assay type: cell-based, Enterovirus 71 (EV-A71); details: for BrCr SI: CC50/EC50; for EC50: Enterovirus A, EVA71, Vero cells, 100TCID50, 48 h
Procedure: as §1
(§2) EV-A71 strain ShenZhen98 (SZ98) was isolated from the throat swab sample of an HFMD case which occurred in 1998 in China. This was kindly provided by Dr. Qi Jin, Institute of Pathogen Biology, Chinese Academy of Medical Science and Peking Union Medical School, Beijing, China. EV-A71 strains BrCr (VR-1775) and H (VR-1432) were purchased from the ATCC. The EV-A71 strain JS52 was a kind gift from Dr. Xiangzhong Ye, Beijing Wantai Biological Pharmacy Enterprise Co., Ltd. EV-A71 were all passaged in Vero cells.
(§3) The anti-EV-A71 activity of compounds was determined by the CPE inhibition method. Briefly, cells (3 × 10^4 cells/well) were plated into 96-well culture plates for incubation for 24 h. The medium was then removed and cells were infected with EV-A71 with 100TCID50 (50% tissue culture infective doses) in serum-free medium for 1 h at 37 °C. Then, the unbound viruses were removed and various concentrations of compounds were supplemented and incubated for another 48 h. The EC50 was determined by the Reed–Muench method. The selectivity index was calculated as the ratio of CC50/EC50 [15].

[3] = test system: EV-A71 strain H; assay: CPE inhibition assay for anti-EV-A71 in Vero cells, H strain; assay type: cell-based, Enterovirus 71 (EV-A71); details: for H SI: CC50/EC50; for EC50: Enterovirus A, EVA71, Vero cells, 100TCID50, 48 h
Procedure: as §1, §2, §3

[4] = test system: EV-A71 strain ShenZhen98 (SZ98); assay: CPE inhibition assay for anti-EV-A71 in Vero cells, Shenzhen98 strain; assay type: cell-based, Enterovirus 71 (EV-A71); details: for Shenzhen98 SI: CC50/EC50; for EC50: Enterovirus A, EVA71, Vero cells, 100TCID50, 48 h
Procedure: as §1, §2, §3

[5] = test system: EV-A71 strain Jiangsu52 (JS52); assay: CPE inhibition assay for anti-EV-A71 in Vero cells, Jiangsu52 strain; assay type: cell-based, Enterovirus 71 (EV-A71); details: for Jiangsu52 SI: CC50/EC50; for EC50: Enterovirus A, EVA71, Vero cells, 100TCID50, 48 h
Procedure: as §1, §2, §3

Compound | EC50 [2] [µM] | EC50 [3] [µM] | EC50 [4] [µM] | EC50 [5] [µM] | CC50 at 3 days [1] [µM] | BrCr SI [2] | H SI [3] | Shenzhen98 SI [4] | Jiangsu52 SI [5]
COc1ccc(N2Cc3ccc(N)cc3C2=O)cc1 [Compound 4, 6-amino-2-(4-methoxyphenyl)isoindolin-1-one] | 5.27 ± 0.44 | 11.7 ± 2.1 | 5.27 ± 0.44 | 5.74 ± 0.54 | 231 | 44 | 19 | 43 | 40
COc1ccc(N2Cc3cc(N)ccc3C2=O)cc1 [Compound 5, 5-amino-2-(4-methoxyphenyl)isoindolin-1-one] | 9.12 ± 0.76 | 16.2 ± 1.9 | 9.12 ± 0.76 | 9.7 ± 0.76 | 159 ± 17.1 | 17 |  | 17 | 16
O=C1c2ccccc2CN1c1ccccc1 [Compound A1, 22-phenylisoindolin-1-one] | 7.87 ± 0.91 | 28.7 ± 4.07 | 7.87 ± 0.91 | 7.87 ± 0.91 | 370 ± 39.8 | 47 | 13 | 47 | 47
O=C1c2ccccc2CN1c1ccc(F)cc1 [Compound A2, 2-(4-fluorophenyl)isoindolin-1-one] | 3.23 ± 0.25 | 4.43 ± 0.88 | 4.43 ± 0.68 | 3.74 ± 0.8 | 218 ± 22.3 | 67 | 49 | 49 | 58
O=C1c2ccccc2CN1c1ccc(Cl)cc1Cl [Compound A5, 2-(2,4-dichlorophenyl)isoindolin-1-one] | 1.27 ± 0.01 | 1.81 ± 0.21 | 1.39 ± 0.17 | 1.27 ± 0.01 | 68.4 ± 5.72 | 54 | 38 | 49 | 54
O=C1c2ccccc2CN1c1ccc(-c2ccccc2)cc1 [Compound A6, 2-([1,1’-biphenyl]-4-yl)isoindolin-1-one] |  |  |  |  | 218 ± 22.3 | / (/ represents selectivity index (SI) value of less than 10) | / (/ represents selectivity index (SI) value of less than 10) | / (/ represents selectivity index (SI) value of less than 10) | / (/ represents selectivity index (SI) value of less than 10)
COc1cc(N2Cc3ccccc3C2=O)cc(OC)c1OC [Compound A8, 2-(3,4,5-trimethoxyphenyl)isoindolin-1-one] | 12.6 ± 2.22 |  | 13 ± 2 | 12.6 ± 2.22 | 76.5 ± 13.1 | / (/ represents selectivity index (SI) value of less than 10) | / (/ represents selectivity index (SI) value of less than 10) | / (/ represents selectivity index (SI) value of less than 10) | / (/ represents selectivity index (SI) value of less than 10)
O=C1c2ccccc2CN1c1ccc2ccncc2c1 [Compound A9, 2-(isoquinolin-7-yl)isoindolin-1-one] | 17 ± 2.92 |  | 17 ± 2.92 | 17 ± 2.92 | 96.5 ± 9.34 | / (/ represents selectivity index (SI) value of less than 10) | / (/ represents selectivity index (SI) value of less than 10) | / (/ represents selectivity index (SI) value of less than 10) | / (/ represents selectivity index (SI) value of less than 10)
O=C(O)c1ccc(N2Cc3ccccc3C2=O)cc1 [Compound A10, 4-(1-oxoisoindolin-2-yl)benzoic acid] | 12.9 ± 2.24 | 13.7 ± 5.71 | 14.6 ± 2.24 | 14.6 ± 2.24 | 46.2 | / (/ represents selectivity index (SI) value of less than 10) | / (/ represents selectivity index (SI) value of less than 10) | / (/ represents selectivity index (SI) value of less than 10) | / (/ represents selectivity index (SI) value of less than 10)
CN1CCN(C(=O)c2ccc(N3Cc4ccccc4C3=O)cc2)CC1 [Compound A11, 2-(4-(4-methylpiperazine-1-carbonyl)phenyl)isoindolin-1-one] |  |  |  |  | 115 | / (/ represents selectivity index (SI) value of less than 10) | / (/ represents selectivity index (SI) value of less than 10) | / (/ represents selectivity index (SI) value of less than 10) | / (/ represents selectivity index (SI) value of less than 10)
O=C(c1ccc(N2Cc3ccccc3C2=O)cc1)N1CCOCC1 [Compound A12, 2-(4-(morpholin-4-carbonyl)phenyl)isoindolin-1-one] | 27 ± 3.38 | 24.4 ± 9.37 | 30.3 ± 2.38 | 30.3 ± 2.38 | 180 ± 27.3 | / (/ represents selectivity index (SI) value of less than 10) | / (/ represents selectivity index (SI) value of less than 10) | / (/ represents selectivity index (SI) value of less than 10) | / (/ represents selectivity index (SI) value of less than 10)
CCCN(CCC)c1ccc2c(c1)CN(c1ccc(OC)cc1)C2=O [Compound B4, 5-(dipropylamino)-2-(4-methoxyphenyl)isoindolin-1-one] |  |  |  |  | 124 ± 12.6 | / (/ represents selectivity index (SI) value of less than 10) | / (/ represents selectivity index (SI) value of less than 10) | / (/ represents selectivity index (SI) value of less than 10) | / (/ represents selectivity index (SI) value of less than 10)
CCC(=O)Nc1ccc2c(c1)CN(c1ccc(OC)cc1)C2=O [Compound C2, N-(2-(4-methoxyphenyl)-1-oxoisoindolin-5-yl)propionamide] |  |  |  |  | 231 | / (/ represents selectivity index (SI) value of less than 10) | / (/ represents selectivity index (SI) value of less than 10) | / (/ represents selectivity index (SI) value of less than 10) | / (/ represents selectivity index (SI) value of less than 10)
CCC(=O)Nc1ccc2c(c1)CN(c1ccc(C)cc1)C2=O [Compound C3, N-(1-oxo-2-(p-tolyl)isoindolin-5-yl)propionamide] |  |  |  |  | 113 ± 17.2 | / (/ represents selectivity index (SI) value of less than 10) | / (/ represents selectivity index (SI) value of less than 10) | / (/ represents selectivity index (SI) value of less than 10) | / (/ represents selectivity index (SI) value of less than 10)

More lines, main results first:

EC50 [2] [µM] | EC50 [3] [µM] | EC50 [4] [µM] | EC50 [5] [µM] | Compound | CC50 at 3 days [1] [µM] | BrCr SI [2] | H SI [3] | Shenzhen98 SI [4] | Jiangsu52 SI [5]
34.6 ± 6.54 |  | 34.6 ± 6.54 | 40.3 ± 5.54 | CCCN(CCC)c1ccc2c(c1)C(=O)N(c1ccc(OC)cc1)C2 [Compound B2, 6-(dipropylamino)-2-(4-methoxyphenyl)isoindolin-1-one] | 257 ± 35.3 | / (/ represents selectivity index (SI) value of less than 10) | / (/ represents selectivity index (SI) value of less than 10) | / (/ represents selectivity index (SI) value of less than 10) | / (/ represents selectivity index (SI) value of less than 10)
18.4 ± 2.41 |  | 18.4 ± 2.41 | 20.6 ± 1.01 | CCCNc1ccc2c(c1)CN(c1ccc(OC)cc1)C2=O [Compound B3, 2-(4-methoxyphenyl)-5-(propylamino)isoindolin-1-one] | 231 | 13 | / (/ represents selectivity index (SI) value of less than 10) | 13 | 11
5.85 ± 0.6 | > 44.4 | 5.85 ± 0.6 | 5.91 ± 0.65 | CCC(=O)Nc1ccc2c(c1)C(=O)N(c1ccc(OC)cc1)C2 [Compound C1, N-(2-(4-methoxyphenyl)-3-oxoisoindolin-5-yl)propionamide] | 152 ± 27 | 26 | / (/ represents selectivity index (SI) value of less than 10) | 26 | 25
